Measurements as given in ChEMBL document CHEMBL1152723, “Remarkable enhancement in the DNA-binding ability of C2-fluoro substituted pyrrolo[2,1-c][1,4]benzodiazepines and their anticancer potential” (2009).

What was measured:
RXF 393 = experiment: Growth inhibition of human […] cells after 48 hrs by sulforhodamine B protein assay; type: functional; conditions: RXF 393, 48 h
TK-10 = experiment: Growth inhibition of human TK10 cells after 48 hrs by sulforhodamine B protein assay; type: functional; conditions: TK-10, 48 h
[1] = Growth inhibition of human Hs 578T cells after 48 hrs by sulforhodamine B protein assay; type: functional
[2] = molecular target: T1, Type II restriction enzyme BamHI (Bacillus amyloliquefaciens) (UniProt P23940); experiment: Inhibition of Bacillus amyloliquefaciens BamH1-mediated pBR322 cleavage after 16 hrs by RED100-restriction endonuclease digestion assay
T1 sequence (whole entry): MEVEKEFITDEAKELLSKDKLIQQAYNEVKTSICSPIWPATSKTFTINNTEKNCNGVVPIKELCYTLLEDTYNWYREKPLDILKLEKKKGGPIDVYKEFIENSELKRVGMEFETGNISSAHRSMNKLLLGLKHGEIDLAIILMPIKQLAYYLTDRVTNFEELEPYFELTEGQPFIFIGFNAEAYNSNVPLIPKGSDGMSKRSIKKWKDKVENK

CCRF-CEM = experiment: Growth inhibition of human CCRF-CEM cells after 48 hrs by sulforhodamine B protein assay; type: functional
K562 = experiment: Growth inhibition of human K562 cells after 48 hrs by sulforhodamine B protein assay; type: functional; conditions: K562, 48 h
HOP-62 = experiment: Growth inhibition of human HOP62 cells after 48 hrs by sulforhodamine B protein assay; type: functional; conditions: HOP-62, 48 h
NCI-H522 = experiment: Growth inhibition of human NCI-H522 cells after 48 hrs by sulforhodamine B protein assay; type: functional; conditions: NCI-H522, 48 h
SF-539 = experiment: Growth inhibition of human SF539 cells after 48 hrs by sulforhodamine B protein assay; type: functional; conditions: SF-539, 48 h
U-251 = experiment: Growth inhibition of human U251 cells after 48 hrs by sulforhodamine B protein assay; type: functional; conditions: U-251, 48 h
Malme-3M = experiment: Growth inhibition of human MALME-3M cells after 48 hrs by sulforhodamine B protein assay; type: functional
M14 = experiment: Growth inhibition of human M14 cells after 48 hrs by sulforhodamine B protein assay; type: functional; conditions: M14, 48 h
A498 = experiment: Growth inhibition of human A498 cells after 48 hrs by sulforhodamine B protein assay; type: functional; conditions: A498, 48 h

COc1cc2c(cc1OCCCN1CCN(CCCOc3cc4c(cc3OC)C(=O)N3CC(F)C[C@H]3C=N4)CC1)N=C[C@@H]1CC(F)CN1C2=O (stereo partly drawn)
GI50 (RXF 393): 110 nM
GI50 (TK-10): 250 nM
GI50 [1]: < 40 nM
Activity [2]: Dose-dependent effect
GI50 (CCRF-CEM): < 10 nM
GI50 (K562): < 10 nM
GI50 (HOP-62): < 10 nM
GI50 (NCI-H522): < 10 nM
GI50 (SF-539): < 10 nM
GI50 (U-251): < 10 nM
GI50 (Malme-3M): < 20 nM
GI50 (M14): < 30 nM
GI50 (A498): < 60 nM
